Measurements taken from patent US12139488B2, “Pyrido[3,2-d]pyrimidine compounds uses thereof for treating a proliferative disease” (Universite de Montreal, priority 2021, dated 2024).
Where two headings read alike, the source gives them in different places.

Columns and labels:
Assay type in all cases: cell-based, human
IPC298 cells (NRAS-Q61L) = assay: Proliferation inhibition (CellTiter-Glo), IPC298; conditions: IPC298, 3 days, read-out: IPC298 Prolif. EC50
Description: (§1) All cancer cell lines (A375, A101D, A2058, RKO, HT29 SK-MEL 30, IPC298, HepG2, HCT-116, Lovo, SWV620, SW480, NCI-H358, NCI-H2122, Calu-6, NCIH2087, NCIH1755, NCIH1666 and Mewo) were obtained from ATCC and cultured in RPMI-1640 medium (Gibco) supplemented with 5% heat inactivated fetal bovine serum (FBS, Wisent) at 37° C. under 5% CO2. Cells were maintained in T175 flasks (Greiner). They were passaged by removing the culture medium, washing once in 10 mL of room temperature Phosphate Buffered Saline (PBS; Wisent) and incubating at 37° C. with 2 mL of 0.05% Trypsin (Thermo-Fisher). Trypsin was then inactivated by adding complete growth medium and the cells were then replated in a T175 culture dish at the appropriate dilution. All cell lines were routinely tested for mycoplasma contamination. Tissue type and mutational status of each cell line can be found in Table B.
(§2) CellTiter-Glo® viability analysis was conducted on cells plated in 100 μL of complete RPMI-1640 growth medium in 96-well flat-bottomed white opaque plates (Greiner or Croning) at a density indicated in Table E (for each CCL, number of cells plated per well of a 96-well plate to perform the CellTiter-Glo® cell viability assay). The cell density in cells/cm^2 would correspond to cell number divided by the area of one well of a 96-well plate (0.32 cm^2). […]
(§3) After 3 days of incubation, the growth media were removed by aspiration and 60 μL of diluted CellTiter-Glo® reagent (10 μL CellTiter-Glo® reagent+50 μL of PBS) was added to each well. […] Luminescence signals were then acquired on a Synergy Neo2 plate reader (Biotek).
(§4) The effect of each compound dilution on the proliferation of cancer cell lines was expressed in % inhibition and calculated as follows. […]
(§5) The ability of each compound to inhibit proliferation was expressed as a EC50 value obtained by plotting the effect values for each data point of a dilution series and fitting the obtained curves using a log(agonist) versus response-variable slope (four parameters) function using GraphPadPrism (V7.0) or Dotmatics Screening Ultra platform.

[1] = test system: pERK in NCIH1755 cells (BRAF G469A); assay: Phospho-ERK inhibition (AlphaLISA), NCIH1755; conditions: for NCIH1755 pERK % Ymin: NCIH1755, value in parentheses
Description: as §1
AlphaLISA® SureFire® Ultra™ p-ERK 1/2 (Thr202/Tyr204) analysis was conducted on cells plated in 100 μL of complete RPMI-1640 growth medium in 96-well flat-bottomed transparent dishes (Costar) at a density indicated in Table C. Cells were maintained overnight at 37° C. under 5% CO2 before treatment with compounds' dilution series for one hour. The cell density in cells/cm^2 corresponds to cell number divided by the area of one well of a 96-well plate ([…]).
In a dilution series 100 μL/well of test substance dilution prepared in complete RPMI-1640 growth media was added to the cells. The dilution series is selected so that ten concentrations cover a range from 10 μM to 0.33 nM. If necessary the initial concentration of 10 μM is increased to 100 μM or lowered to 1 μM (as in the case of A375 and H1666 cells, which are generally more sensitive to the compounds) and further dilution is carried out accordingly. The final concentration of DMSO in the assay is set at 0.5%.
After treatment, media was removed and cells were lysed in 50 μL of 1× AlphaScreen Ultra Lysis Buffer (Perkin Elmer). The AlphaLISA® SureFire® Ultra™ p-ERK 1/2 (Thr202/Tyr2O4) (PerkinElmer) reactions were performed with 5 μL of cell lysate according to the manufacturer's specifications in 384-well proxyplates (Perkin Elmer) followed by overnight incubation of the reactions at room temperature in a humidified chamber. After completion of the reactions, the signals were recorded on an EnVision plate reader (Perkin Elmer) using built in AlphaLISA® settings.
The effect of each compound dilution on the pERK signal was expressed in % inhibition and calculated as follows. An internal 100% inhibition control ([…] trametinib, cat #HY-10999; MedChem Express; CAS #871700-17-3) was included in each plate and used as a measure of pERK background. First, the value obtained for trametinib was subtracted from each data point. The average of DMSO (vehicle) controls (set as 0% inhibition) was established and used to calculate % inhibition: % inhibition=100*(1-((pERK signalcompound)/(pERK signalDMSO)))
as §5, with “pERK signal” for “proliferation”, “an IC50” for “a EC50”, “inhibition” for “effect”
When present, paradoxical pERK induction is inferred from the negative % inhibition values observed in the pERK IC50 curves of a compound.

RKO cells (BRAF V600E) = assay: Proliferation inhibition (CellTiter-Glo), RKO; conditions: 3 days, read-out: RKO Prolif. EC50
Description: as §1, §2, §3, §4, §5

| Structure (SMILES) | EC50 (IPC298 cells (NRAS-Q61L); Homo sapiens, IPC-298, 72 h) [nM] | IC50 ([1]; Homo sapiens, NCI-H1755) [nM] | NCIH1755 pERK % Ymin [1] [%] | EC50 (RKO cells (BRAF V600E); Homo sapiens, 72 h) [nM] | EC50 (IPC298 cells (NRAS-Q61L)) [nM] | IC50 ([1]; NCIH1755) [nM] | EC50 (RKO cells (BRAF V600E)) [nM] |
| --- | --- | --- | --- | --- | --- | --- | --- |
| Cc1ccc2c(Nc3cccc(Cl)c3F)nccc2c1NC(=O)c1csc2c(N)ncnc12 [Belvarafenib, reference compound] | < 30 | 30 to 300 | −79 | < 30 |  |  |  |
| Nc1cccc2c1ncn2-c1ccc2ncnc(Nc3c(F)ccc(NS(=O)(=O)c4cccc(Cl)c4Cl)c3F)c2n1 [Example 99] |  |  | −8 |  | < 30 | < 30 | < 30 |
| CC1(O)CCN(c2cccc3c2ncn3-c2ccc3ncnc(Nc4c(F)ccc(NS(=O)(=O)c5cccc(Cl)c5Cl)c4F)c3n2)CC1 [Example 524] |  |  | −13 |  | < 30 | 30 to 300 | < 30 |
